Laboratory results published in publication PMC3983056 (PLoS Pathogens, 2014).

Experiments:
[1] = system: PBMC cultures from HIV-infected patients; assay: Cytokine induction in PBMC cultures; format: cell-based, human; conditions: RMD treatment, data not shown
Description: HIV latency reversing agents that would be suitable for the therapeutic use in vivo should not induce non-specific immune activation.

human HDAC-5 = target: T1, human HDAC-5 (Homo sapiens, UniProt Q9UQL6); assay: HDAC inhibition assay; format: biochemical
T1 construct: purchased Reaction Biology Corporation (Malvern, PA)
Description: (§1) Determination of HDACi potency against individual HDAC enzymes was performed at Reaction Biology Corporation (Malvern, PA). In brief, human HDAC-1 to -11 enzymes were incubated with serial dilutions of HDACi and fluorogenic peptide substrates (50 µM) in a 96-well format assay. […] Fluorogenic peptide Boc-Lys(trifluoroacetyl)-AMC was used as a substrate for HDAC enzymes 4, 5, 7, and 9.

[2] = system: HIV gag-pol RNA from resting CD4 T cells of a cART-suppressed patient; assay: Single-genome sequencing of HIV RNA in culture supernatants; format: cell-based; conditions: 2.5 nM RMD, continuous, day 7
Description: In parallel, we assessed the sequence diversity of HIV proviruses integrated in genomic DNA of resting CD4 T cells from the same culture.
Figure 8 Phylogenetic analysis of HIV sequences expressed ex vivo following the latency reversal. […] Single-genome sequencing was used to analyze patient HIV proviral DNA and plasma RNA at the initiation of treatment (day 0), together with the ex vivo induced HIV RNA in cell culture supernatants at the end of treatment (day 7). […] Identified HIV DNA and RNA sequences were aligned and the phylogenetic tree was constructed using Clustal W and MEAG5.
Single-genome sequencing of a portion of HIV-1 gag-pro-pol amplified from cell culture supernatants or cellular DNA extracts was performed as previously described [34]–[36]. Sequences were aligned using ClustalW and neighbor-joining phylogenetic analysis was performed using MEGA5. Trees were rooted on the subtype B consensus sequence (www.hiv.lanl.gov).

human HDAC-9 = target: T2, human HDAC-9 (Homo sapiens, UniProt Q9UKV0); assay: HDAC inhibition assay; format: biochemical
T2 construct: purchased Reaction Biology Corporation (Malvern, PA)
T2 sequence (Q9UKV0 whole entry): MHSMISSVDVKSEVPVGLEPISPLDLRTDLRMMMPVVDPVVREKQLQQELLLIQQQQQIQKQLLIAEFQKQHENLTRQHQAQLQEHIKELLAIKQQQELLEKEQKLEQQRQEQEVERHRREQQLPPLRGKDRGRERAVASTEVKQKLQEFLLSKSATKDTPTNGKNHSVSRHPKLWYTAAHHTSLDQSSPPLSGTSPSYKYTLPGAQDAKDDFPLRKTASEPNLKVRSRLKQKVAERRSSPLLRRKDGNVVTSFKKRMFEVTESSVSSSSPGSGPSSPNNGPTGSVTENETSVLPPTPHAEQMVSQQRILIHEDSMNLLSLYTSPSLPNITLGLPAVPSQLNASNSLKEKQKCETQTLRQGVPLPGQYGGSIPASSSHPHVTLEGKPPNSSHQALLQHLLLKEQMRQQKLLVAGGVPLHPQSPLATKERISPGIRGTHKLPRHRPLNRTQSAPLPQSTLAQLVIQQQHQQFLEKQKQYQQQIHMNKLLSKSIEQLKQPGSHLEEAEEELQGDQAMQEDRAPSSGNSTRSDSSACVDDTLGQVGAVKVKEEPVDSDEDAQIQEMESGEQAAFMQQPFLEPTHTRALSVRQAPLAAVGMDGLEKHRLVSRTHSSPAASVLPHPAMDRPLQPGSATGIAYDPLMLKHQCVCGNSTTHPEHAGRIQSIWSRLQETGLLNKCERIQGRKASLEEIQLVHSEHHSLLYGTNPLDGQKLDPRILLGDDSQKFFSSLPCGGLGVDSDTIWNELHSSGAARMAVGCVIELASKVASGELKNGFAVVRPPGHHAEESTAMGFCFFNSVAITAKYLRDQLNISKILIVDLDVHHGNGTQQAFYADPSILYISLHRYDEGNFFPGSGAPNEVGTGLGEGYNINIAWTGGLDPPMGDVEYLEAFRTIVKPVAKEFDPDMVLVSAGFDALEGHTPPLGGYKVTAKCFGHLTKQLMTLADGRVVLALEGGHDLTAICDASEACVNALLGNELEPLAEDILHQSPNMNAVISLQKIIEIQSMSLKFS
Description: as §1

T1 sequence (Q9UQL6 whole entry): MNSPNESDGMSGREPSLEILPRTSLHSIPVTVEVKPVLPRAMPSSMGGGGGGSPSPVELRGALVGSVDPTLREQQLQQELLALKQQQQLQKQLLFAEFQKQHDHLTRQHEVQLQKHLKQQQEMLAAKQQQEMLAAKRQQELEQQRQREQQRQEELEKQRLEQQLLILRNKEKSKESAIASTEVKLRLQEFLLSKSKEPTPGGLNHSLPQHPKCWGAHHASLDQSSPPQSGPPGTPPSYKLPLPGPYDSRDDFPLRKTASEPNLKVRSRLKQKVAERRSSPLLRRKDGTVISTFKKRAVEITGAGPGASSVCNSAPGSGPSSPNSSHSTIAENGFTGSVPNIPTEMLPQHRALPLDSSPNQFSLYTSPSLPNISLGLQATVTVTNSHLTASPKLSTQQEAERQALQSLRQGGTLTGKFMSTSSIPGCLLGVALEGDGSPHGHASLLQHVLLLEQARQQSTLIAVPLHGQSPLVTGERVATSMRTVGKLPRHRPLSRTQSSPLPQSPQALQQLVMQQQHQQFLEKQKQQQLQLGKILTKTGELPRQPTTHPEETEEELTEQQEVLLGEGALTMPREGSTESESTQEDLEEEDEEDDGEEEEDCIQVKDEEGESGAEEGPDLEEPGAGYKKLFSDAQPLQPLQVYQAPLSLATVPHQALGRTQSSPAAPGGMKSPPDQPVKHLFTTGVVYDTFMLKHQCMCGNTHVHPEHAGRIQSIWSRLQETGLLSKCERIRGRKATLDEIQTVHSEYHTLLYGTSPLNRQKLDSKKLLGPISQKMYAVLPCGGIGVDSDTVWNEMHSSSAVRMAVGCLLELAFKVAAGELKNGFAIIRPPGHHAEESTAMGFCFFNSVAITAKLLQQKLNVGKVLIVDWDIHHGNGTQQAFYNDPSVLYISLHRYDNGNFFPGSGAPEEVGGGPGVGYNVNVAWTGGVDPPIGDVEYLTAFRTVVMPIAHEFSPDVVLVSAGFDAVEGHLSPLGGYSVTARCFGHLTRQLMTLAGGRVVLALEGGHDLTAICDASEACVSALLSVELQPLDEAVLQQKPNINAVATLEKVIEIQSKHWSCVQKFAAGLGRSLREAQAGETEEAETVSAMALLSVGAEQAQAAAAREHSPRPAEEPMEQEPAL

C/C=C1\NC(=O)[C@H]2CSSCC/C=C/[C@H](CC(=O)N[C@H](C(C)C)C(=O)N2)OC(=O)[C@H](C(C)C)NC1=O [RMD, romidepsin]
induction of IFN-α, IFN-γ, TNF-α, TGF-β, IL-2, IL-7 or other cytokines [1]: no significant induction | IC50 (human HDAC-5): 1.16 µM | sequences of HIV RNA collected in culture supernatants [2]: 4 | IC50 (human HDAC-9): 8.91 µM
